Results: US20240239762A1, “NOVEL HETEROCYCLIC COMPOUNDS” (FLORATEK PHARMA S.A., priority 2021, published 2024)
“Also recorded” adds a separate entry of the source. Where two headings read alike, the source gives them in different places.

Key:
C. elegans [1] = test: Lifespan assay on the Automated Lifespan Machine; assay type: in vivo, Caenorhabditis elegans; settings: 50 μM; for Max life span: 95th percentile of lifespans in each group; for Mean life span: calculated from the area under the survival curve; for Median life span: day 1 set at day 1 of adulthood, time at which 50% of the worms have died
Text: To prevent chemical modification or metabolism of the test article by the food bacteria, worms were fed on a lawn of UV-killed bacteria (UV-i bacteria). An overnight culture of E. coli strain WP-2 was pelleted, washed, filtered, and irradiated. A suspension of UV-i bacteria was spotted on NGM agar containing Streptomycin to inhibit the growth of contaminating bacteria. The quantity and distribution of food bacteria were calibrated to ensure adequate access to food for the duration of assay while maintaining visibility of the worms.
Test compounds were soluble in 100% DMSO. The compounds were dissolved in a working solution and then combined directly with the food bacteria before seeding on agar plates. The food spots are dried slowly, allowing the compound to diffuse into the food bacteria and the agar for at least 24 hours before worms were introduced.
The ALM used by InVivoBiosystems is based on the Caenorhabditis elegans lifespan machine published by Stroustrup et. Al [Stroustrup, N. et al. The Caenorhabditis elegans Lifespan Machine. Nat Methods 10, 665-670 (2013)], with proprietary modifications to improve temperature stability and image acquisition. The scanner unit consisted of a modified EPSON V850 and images were processed and analyzed using the ALM software. The machine time-of-death calls are trained and validated using the “storyboarding” feature of the ALM software.
The lifespan assay was designed and performed according to published and validated methods [Amrit, F. R. G., Ratnappan, R., Keith, S. A. & Ghazi, A. The C. elegans lifespan assay toolkit. Methods 68, 465-475 (2014).] using a modified version of the Automated Lifespan Machine 7.
The lifespan assay was initiated by expanding all replicate groups to more than 1000 worms, then synchronizing by bleaching and allowing larval worms to hatch and arrest. To suppress progeny, worms were transferred to media containing 5-Fluorodeoxyuridine (FUdR) within 54-60 hours post-plating. Worms were inspected 24 and 48 hours after this transfer to confirm infertility. Finally, the worms were inspected for general health and morphology before transferring to scanner plates. The scanner plates were transferred to scanners for automated imaging on day 3 of adulthood.
Plates were immobilized inverted on the bed of an Automated Lifespan Machine which scanned two images per hour of the plates continuously for the next 40 days.
Time of death calls exported from the ALM software was analyzed and plotted using the Lifelines software package developed by Cam Davidson-Pilon et. al [Davidson-Pilon, C et. al. Lifelines survival analysis package. CamDavidsonPilon/lifelines: vo. 25-9.]. Additional analysis was performed using the OASIS2 analysis software6.
Worm movement was tracked from the images acquired by the ALM during the lifespan assay. Worm size and movement features were extracted and analyzed using custom software.

C. elegans strain SD1347 = test: Age-related sarcopenia model: muscle mitochondrial fragmentation scoring; assay type: in vivo, Caenorhabditis elegans; settings: day 11; 50 μM; ANOVA and multiple comparisons (FIG. 8)
Description: C. elegans strain SD1347 confirmed to have nuclear and mitochondrial GFP labeling in muscle was obtained from the Caenorhabditis Genetic Center.
Synchronized worm populations were administered a single concentration of 50 μM SND compounds by exposure on NGM plates starting the day before adulthood. All plates contained 50 μM 5-Fluorodeoxyuridine (FUdR) to prevent progeny production. Animals were immobilized using NemaGel (InVivo Biosystems) and imaged within 1 hour. Worms were alive throughout imaging. For each worm imaged, one head and one tail image was collected from regions excluding the pharynx, vulva, and tip of the tail. For day 1, a single session imaged a minimum of 5 worms per condition.
For aged worms, two total biological replicates were collected, each with 5-6 worms imaged per condition. Images were obtained using a Nikon Eclipse Ti2 spinning disk confocal microscope. After processing, each image was scored blindly in replicate groups by six viewers.
Stock solutions of SND compounds were prepared by dissolving to 50 mM in DMSO. Working solutions were prepared such that the final concentration of compound in the total volume of the solid media would be 50 μM, and the DMSO concentration would not exceed 0.1% (e.g. 10 μl in a 10 mL dish). […]

C. elegans [2] = test: Global gene expression by mRNA sequencing (RNA-Seq), GO enrichment and pathway mapping; assay type: in vivo, Caenorhabditis elegans
Description: To identify potential mechanisms of action through which SND305 and SND306 could affect aging, global gene expression was analyzed by mRNA sequencing (RNA-Seq). Worms were treated on the same media and conditions as the lifespan assay, then young worms were harvested at adult day 3 and aged worms harvested at adult day 10. Three replicates of treated samples were analyzed.
More than 300 day 1 adult worms per replicate were harvested, cleaned by filtration, and frozen at −80° in Trizol. To extract RNA, samples were thawed, vigorously vortexed, and processed using the Direct-zol RNA Miniprep Kit (Zymo Research). All samples exceeded the threshold for RNA quantity and quality.
The total RNA was then enriched for poly-mRNA using oligo(dT) paramagnetic beads. DNA libraries were then constructed from this input mRNA using the NEBNext Ultra™ II RNA Library Prep Kit. This created a ready-to-sequence dsDNA library that retained the strand-specific information in the original mRNA. These libraries were then further tested by the Qubit for concentration and the Agilent 2100 for library size distribution and quality. In order to properly pool the libraries and load them onto sequencing lanes to ensure the correct number of reads per sample, an even more precise quantification of the library was done via qPCR, and the samples were loaded onto the NovaSeq 6000 platform for a paired-end sequencing run of 150 bp for each end (PE150). The loading concentrations were designed to obtain at least 6.0 Gb (which is the number of billion bases of raw data, determined by the number of reads multiplied by the length of each read).
The raw data set was analyzed for • 1. The distribution of base quality along the length of the sequencing read • 2. The distribution of error rate along the length of the sequencing read • 3. The distribution of A/T/G/C bases along the length of the sequencing read • 4. The distribution of raw data filtering results based on the following three criteria: • a. Removing reads containing adapter sequence • b. Removing reads with N>10% (where N means “base cannot be determined”) • c. Removing reads with a low quality (Qscore<=5) for 50% or more of its total bases
Multidimensional scaling makes it possible to see strong patterns in large, complex data sets by reducing the data to two or three dimensions. When the data is plotted along these few dimensions, the samples form clustered based on their overall similarity to one another. The distance between samples is calculated based on the Biological Coefficient of Variation (BCV). Greater differences were observed between all conditions at Day 10 than at Day 3. To identify genes that are differentially expressed upon treatment with SND305 and SND306, the gene counts for each of the treated samples were compared against the control.
GO enrichment analysis is a common approach that identifies functional groups form lists of differentially expressed genes. Genes are annotated based on functional categories (gene ontologies) that are further categorized by biological process (BP), molecular function (MF), or cellular compartment (CC). A comparison is made between the likelihood of seeing genes in that category (ontology) being enriched or depleted in the list of DEGs when compared to a random selection of genes.
In order to identify which cellular pathways were most likely modulated by treatment with SND305 and SND306 and gain insight into how these pathways might contribute to mechanism of action (MoA), the genes differentially expressed after SND305 and SND306 treatment were mapped to core established longevity pathways from the literature. The mapping was then expanded to intersecting and supporting pathways. This placed the transcriptomic data within the context of well-characterized biological pathways, particularly several related to longevity.

C. elegans [3] = settings: cited from earlier work
[4] = aged (Day 10) worms, weighted by the p-value

Row | Compound | Max life span (C. elegans [1]) [days] | Mean life span (C. elegans [1]) [days] | Median life span (C. elegans [1]) [days] | Effect on lifespan (C. elegans [1]) | Sum of the mitochondrial fragmentation scores per image vs control (C. elegans strain SD1347) | Noteable GO categories enriched or depleted, Down (C. elegans [2]; Day 3) | Noteable GO categories enriched or depleted, Up (C. elegans [2]; Day 3) | Noteable GO categories enriched or depleted, Down (C. elegans [2]; Day 10) | Noteable GO categories enriched or depleted, Up (C. elegans [2]; Day 10) | Expression of genes specifically involved in axon regeneration (C. elegans [2]; Day 10 (FIGS. 4 and 5)) | Differentially expressed genes above threshold (volcano plot) (C. elegans [2]; Day 10, P-value<0.05 and fold change >2.0) | CTSB expression, fold down- (C. elegans [2]; [4]) [fold] | CTSD expression, fold down- (C. elegans [2]; [4]) [fold] | LAMP expression, fold up- (C. elegans [2]; [4]) [fold] | Expression of cathepsin orthologs cpr-1, cpr-4, cpr-9 (C. elegans [2]; day 3 (FIGS. 2 and 3)) | Insulin Signaling (IIS) Pathway components daf-18, akt-1, and daf-16 (C. elegans [2]; day 3 (FIGS. 2 and 3)) | Accumulation of dysfunctional mitochondria with age (C. elegans [3]) | Effect on lifespan (C. elegans [3])
1 | CO[C@H]1C[C@@H]2CC[C@@H](C)[C@@](O)(O2)C(=O)C(=O)N2CCCC[C@H]2C(=O)O[C@H]([C@H](C)C[C@@H]2CC[C@@H](O)[C@H](OC)C2)CC(=O)[C@H](C)/C=C(\C)[C@@H](O)[C@@H](OC)C(=O)[C@H](C)C[C@H](C)/C=C/C=C/C=C/1C [Rapamycin, reference compound] | 33.0 | 26.2 | 26.5 |  |  |  |  |  |  |  |  |  |  |  |  |  |  | 
2 | CC(C)NC(=O)Oc1ccc2c(c1)COc1cc(OC(=O)NC(C)C)ccc1-2 [SND306] | 34.6 | 25.8 | 26.6 | increased the life span with statistical significance | significantly less fragmentation than the control | hydrolase activity | structural constituent of cuticle (e.g. collagen), immune response, lipid | extracellular region, immune response, response to other organism | enrichment in genes involved with axon development and regeneration; also recorded: nervous system development, neurogenesis, regulation of gene expression | upregulation | a large number of DEGs above threshold | > 5 | > 5 | > 5 | upregulated | slight modulation |  | 
3 | O=c1oc2cc(O)ccc2c2ccc(O)cc12 [Urolithin A, urolithin A] |  |  |  |  | did not reach statistical significance |  |  |  |  |  |  |  |  |  |  |  | prevented the accumulation of dysfunctional mitochondria with age | extended lifespan
